Tests used:
[1] = target: HPK1 (Homo sapiens (Human), UniProt Q92918, S171E/T165E); experiment: HPK1-FL HTRF Enzymatic Assay ("HTRF"); assay type: biochemical; conditions: HPK full length, ATP 1 mM
Description: HPK1-FL HTRF Enzymatic Assay (“HTRF”)
HPK-FL enzyme phosphorylates Biotin-SLP-76 substrate in the presence of ATP at 1 mM and varying concentrations of test compound. Product is detected by FRET using Eu-anti-pSLP76 Ab and SA-XL665. Also see www.cisbio.com/HTRF for additional HTRF technology information.
Instrumentation: Echo555 compound dispenser; Agilent Bravo; Perkin Elmer Envision.
To a 384 well Proxiplate with 80 nL compound or DMSO spotted on was added 4 μl/well kinase mix. The mixture was preincubated for 30 minutes and then 4 μl/well substrate mix was added. The solution was incubated for 60 min and then 4 μl/well detection mix was added. The solution was incubated for another 60 min. The plates were then loaded onto a
Perkin Elmer Envision and the TR-FRET signal was measured at […] and 665 nm. A ratio of 665/620 was used to calculate the % activity at each concentration of compound.

[2] = tested on: primary human pan T cells; experiment: Human T-Cell IL2 Induction Assay; assay type: cell-based; conditions: anti-CD3/anti-CD28 stimulation
Description: Assay Principle: Anti-CD3 and anti-CD28 activates TCR signaling in primary human pan T cells leading to IL-2 promoter induction. Secreted IL-2 in cell culture supernatant is detected by electrochemiluminescence using a capture antibody against IL-2 and an anti-IL-2 antibody labeled with SULFO-tag. Also see www.mesoscale.com for additional electrochemiluminescence technology information.
Assay Procedure: Incubate primary human pan T cells with varying concentrations of test compounds for 30 minutes in a humidified incubator at 37° C. and 5% CO2. Transfer cells to a plate pre-coated with a fixed concentration of anti-human CD3 (determined separately for each donor lot) and add soluble anti-human CD28 (final concentration=1 μg/ml). Stimulate cells in a humidified incubator at 37° C. and 5% CO2 for 4 hours. Transfer 25 μl of supernatant to a MSD single spot plate pre-coated with an anti-human IL-2 antibody. Incubate MSD plate overnight at 4° C. with gentle shaking. Wash MSD plate 4× with wash buffer. Add SULFO-tagged detection antibody at a 1:50 dilution and incubate at room temperature shaking for 2 hours. Wash MSD plate 4× with wash buffer and add 150 μl 2×MSD read buffer. Read on an MSD instrument. Normalize data to stimulated/untreated controls to calculate % activity at each concentration of compound.
• Frozen Primary Human Pan-T Cells (StemCell Technologies #70024) • anti-human CD3 (OKT3 clone) (eBioscience #16-0037-81) • anti-human CD28 (CD28.2 clone) (BD #555725) • 96-well Human IL-2 tissue culture kit (MSD #K151AHB-4) Instrumentation: • Biomek FX for liquid handling (Beckman Coulter) • MSD SECTOR S 600 (Meso Scale Discovery)
Exemplary compounds of Formula (I) were tested in the human T-cell IL-2 induction assays. The % increase measured for IL-2 in cells treated by the test compounds relative to untreated cells are provided in Table B2 for certain compounds.

Chain of HPK1 (Q92918 whole entry T165E/S171E): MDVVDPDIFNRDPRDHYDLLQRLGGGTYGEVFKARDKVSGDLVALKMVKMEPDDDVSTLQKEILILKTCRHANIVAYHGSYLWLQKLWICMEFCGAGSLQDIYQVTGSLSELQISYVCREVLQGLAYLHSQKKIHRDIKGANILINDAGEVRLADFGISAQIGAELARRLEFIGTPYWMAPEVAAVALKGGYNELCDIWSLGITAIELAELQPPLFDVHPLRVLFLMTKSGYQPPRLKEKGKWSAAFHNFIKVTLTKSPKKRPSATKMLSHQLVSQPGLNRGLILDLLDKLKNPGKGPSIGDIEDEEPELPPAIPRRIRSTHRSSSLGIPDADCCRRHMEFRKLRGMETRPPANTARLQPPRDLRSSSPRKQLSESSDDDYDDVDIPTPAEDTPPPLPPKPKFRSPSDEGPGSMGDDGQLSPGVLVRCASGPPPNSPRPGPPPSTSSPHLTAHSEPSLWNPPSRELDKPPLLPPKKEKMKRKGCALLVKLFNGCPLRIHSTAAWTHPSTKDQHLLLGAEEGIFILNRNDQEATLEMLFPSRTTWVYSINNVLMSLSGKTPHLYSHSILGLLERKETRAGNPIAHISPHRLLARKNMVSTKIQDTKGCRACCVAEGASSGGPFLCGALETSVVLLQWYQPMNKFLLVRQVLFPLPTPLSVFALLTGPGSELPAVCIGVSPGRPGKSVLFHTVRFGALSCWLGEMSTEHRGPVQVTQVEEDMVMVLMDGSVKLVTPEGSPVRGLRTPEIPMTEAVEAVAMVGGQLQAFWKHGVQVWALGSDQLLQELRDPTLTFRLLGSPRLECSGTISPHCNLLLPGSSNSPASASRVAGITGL

Row | SMILES | Ki [1] [nM] | % IL-2 increase relative to untreated cells ([2]; assayed concentration 0.926 μM) [%] | % IL-2 increase relative to untreated cells ([2]; assayed concentration 2.778 μM) [%]
1 | CC[C@@H]1[C@H](C(=O)Nc2cc3cc(-c4cnc5c(c4C)NCCO5)c(F)cc3cn2)[C@H]1c1cnn(C)c1 (single isomer, unassigned) [Compound 301c] | 0.06 | 232 | 
2 | Cc1c(-c2cc3cc(NC(=O)OC4CC5(CCNCC5)C4)ncc3cc2F)cnc2c1NCCO2 [Compound 113, 7-Azaspiro[3.5]nonan-2-yl (7-fluoro-6-(8-methyl-2,3-dihydro-1H-pyrido[2,3-b][1,4]oxazin-7-yl)isoquinolin-3-yl)carbamate] | 0.27 |  | 702
3 | Cc1c(-c2cc3cc(NC(=O)N[C@H](C)c4cnn(C)c4)ncc3cc2F)cnc2c1NCCO2 [Compound 201a, (R)-1-(7-Fluoro-6-(8-methyl-2,3-dihydro-1H-pyrido[2,3-b][1,4]oxazin-7-yl)isoquinolin-3-yl)-3-(1-(1-methyl-1H-pyrazol-4-yl)ethyl)urea] |  |  | 145
